The source of these data is US7714105B2, “Use of fragments of oxytocin for the preparation of a pharmaceutical composition in order to create eustasis” (priority 2001, dated 2010).

Type in all cases: in vivo, rat
One experiment relates to Gastrin. Nature of the experiment: Plasma gastrin determination by immunoassay. The note with it: 1 mg/kg s.c. for five consecutive days, trunk blood four days after end of treatment, mean ± SD, in pmol/L. The procedure:
(§1) Animals. Eight week-old male Sprague-Dawley rats (280-300 g) were obtained from B&K Universal AB, Sollentuna, Sweden.
(§2) Experimental procedure. SEQ ID NO: 5 was dissolved in physiological saline (1 mg/ml) and administered subcutaneously to six rats at a dose of 1 mg/kg for five consecutive days. Six rats received physiological saline only as a control. Two days after the last treatment, the rats were exposed to blood pressure determination with the cuff technique. The locomotor behaviour was studied three days after the end of the treatment. The next day the animals were decapitated and blood was collected.
(§3) Statistics. The results are presented as means ±SD. Statistical analysis was performed by means of 2-way ANOVA followed by Bonferroni's test for post hoc comparison. A Students t-test was performed. p-values of 0.05 or less were regarded as statistically significant.
(§4) Trunk blood was collected in ice-chilled tubes, containing heparin (10 IU/ml) (Pharmacia-Upjohn, Stockholm, Sweden) and aprotinin (500 IU/ml) (Trasylol, Bayer, Germany). The blood samples were centrifuged and plasma was removed and frozen (−20° C.).
Gastrin was immunoassayed as described by Smedh, U., and Uvnäs-Moberg, K. (1994) Intracerebroventricularly administered corticotropin-releasing factor releases somatostatin through a colinergic, vagal pathway in freely fed rats. Acta Physiol Scand 151, 241-247. […]

For experiment [1], the system named is male Sprague-Dawley rats. The experiment is described as follows: Locomotor activity observations in open-field arena. The note with it: 1 mg/kg subcutaneously for five consecutive days, studied three days after end of treatment, vs saline control. The method, then: as §1, §2, §3
Two identical frames of photocells were placed at two levels, 40 and 125 mm above the floor, respectively. The open-field was enclosed in a ventilated, sound-attenuating box with a Perspex top. Measurements were made in the dark and performed between 0.900-16.00 h.
The number of photocell beam interruptions were collected on an IBM-compatible PC computer allowing the registration of locomotor activity (all interruptions of photobeams at the lower level) and rearing (all interruptions of photobeams at the upper level). The data were subject to a square root transformation. For further details on the apparatus and the computer software used, including a schematic drawing of the equipment, see Ericson, E., Samuelsson, J., and Ahlenius, S. (1991). Photocell measurements of rat motor activity: A contribution to sensitivity and variation in behavioral observations. J Pharmacol Meth 25, 111-122. Furthermore, the peripheral activity was measured. By peripheral activity is meant that the animals are located in the corners of the arena. When the animals are frightened, they have a higher tendency to be located in the corners ie have a high peripheral activity. […]

The subject of experiment [2] is male Sprague-Dawley rats. Nature of the experiment: Measurement of blood pressure with tail cuff on conscious animals. The note with it: 1 mg/kg s.c. for five consecutive days, two days after last treatment. The method, then: as §1, §2, §3
Blood pressure and heart rate were measured on conscious animals by placing a cuff (Kent RTBP-002, Somedic Sales, Farsta, Sweden) on the base of the tail. The cuff was connected to a Grass 7P8 sphygmanometer and a Grass 7P8DC amplifier with a printer. The rats were habituated to the entire test procedure for 2-3 weeks before the procedure started.

The next experiment relates to Oxytocin. Nature of the experiment: Plasma oxytocin determination by radioimmunoassay. The note with it: 1 mg/kg s.c. for five consecutive days, trunk blood four days after end of treatment, mean ± SD, in pmol/L. The method, then: as §1, §2, §3
Trunk blood was collected in ice-chilled tubes, containing heparin (10 IU/ml) (Pharmacia-Upjohn, Stockholm, Sweden) and aprotinin (500 IU/ml) (Trasylol, Bayer, Germany). […]
Oxytocin was measured with a specific radioimmunoassay developed in this laboratory (Stock, S., and Uvnäs-Moberg, K. (1988). Increased plasma levels of oxytocin in response to stimulation of the sciatic and vagal nerves and in response to touch and pinch in anaesthetized rats. Acta Physiol Scand 132, 29-34.). […]

For the next experiment, the system named is CCK. Nature of the experiment: Plasma cholecystokinin (CCK) determination by immunoassay. The note with it: 1 mg/kg s.c. for five consecutive days, trunk blood four days after end of treatment, mean ± SD, in pmol/L. The method, then:
as §1, §2, §3, §4
CCK was immunoassayed as described by Smedh and Uvnäs Moberg, supra. Plasma samples were purified with reversed-phase chromatography using C18 Waters SEP PAK cartridges. […]

Ends that are not written are not given here.

Consider “Cys-Pro-Leu-Gly-NH2 (CPLG-NH2) [SEQ ID NO: 5]”, for which the “Hormone levels in hormone treated rats (N = 6): Gastrin” value in the experiment on Gastrin came out at 85 ± 19.3. For the same substance, in the experiment with male Sprague-Dawley rats [1], the “amount of peripheral activity” value is “decreased”, the amount of rearing entry was “significantly decreased” and the locomotor activity entry was “significantly decreased”. In addition, in the experiment with male Sprague-Dawley rats [2] (mean ± SD), the “Diastolic blood pressure, value in hormone treated rats (N = 6)” value turned out to be 87.3 ± 18.9 and the “Systolic blood pressure, value in hormone treated rats (N = 6)” value is listed as 116 ± 9.1. In addition, in the experiment with male Sprague-Dawley rats [2] (vs saline control), the blood pressure result was “significantly decreased”. In the experiment with Oxytocin, the “Hormone levels in hormone treated rats (N = 6): Oxytocin” value worked out at 29.7 ± 7.2. Besides, the “Hormone levels in hormone treated rats (N = 6): CCK” value in the experiment on CCK was determined as 8.4 ± 3.5.
